{"source": "paper PMC4083273", "about": "(Bioscience Reports, 2014)", "key": {"CobR (corrin reductase) [1]": {"molecular_target": "T1, CobR (corrin reductase) (Brucella melitensis, UniProt Q8YHT7)", "T1 construct": "gene BMEI0709", "T1 sequence (Q8YHT7 1-173)": "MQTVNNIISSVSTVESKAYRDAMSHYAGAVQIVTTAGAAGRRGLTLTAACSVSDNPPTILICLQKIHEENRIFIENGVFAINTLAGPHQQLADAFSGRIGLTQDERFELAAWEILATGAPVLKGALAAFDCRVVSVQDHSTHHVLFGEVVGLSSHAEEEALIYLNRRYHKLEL", "settings": "crystals grown with 2 mM FAD, pH 4.6; FAD in both active sites; second site (additional folded FAD per subunit)"}, "CobR (corrin reductase) [2]": {"molecular_target": "T1, CobR (corrin reductase)", "settings": "reference without excess FAD 70 °C, 50 mM NaPi, 100 mM NaCl pH 6.5, 125°/h, irreversible unfolding"}}}
{"compound": "Cc1cc2nc3c(=O)[nH]c(=O)nc-3n(C[C@H](O)[C@H](O)[C@H](O)COP(=O)(O)OP(=O)(O)OC[C@H]3O[C@@H](n4cnc5c(N)ncnc54)[C@H](O)[C@@H]3O)c2cc1C", "note": "[FAD]", "values": [{"measurement": "X-ray crystallography, 2.2 Å", "setting": "CobR (corrin reductase) [1]", "result": "FAD is seen occupying both active sites of the homodimer"}, {"measurement": "apparent Tm with excess FAD", "setting": "CobR (corrin reductase) [2]", "result": 80, "unit": "°C"}]}
